Results reported in US11560372B2, “Heterocyclic compounds useful as modulators of acetylcholine receptors” (TAKEDA PHARMACEUTICAL COMPANY LIMITED, priority 2017, dated 2023).

Experiments:
[1] = target: T1, human M1 receptor (hCHRM1) (Homo sapiens, UniProt P11229); assay: Measurement of M1 receptor positive allosteric modulator (M1PAM) activity, calcium fluorescence in CHO-K1 cells; format: cell-based; conditions: for activity (%) at 10 μM: 10 μM test compound, 100% = acetylcholine final concentration 1 μM, 0% = DMSO; for EC50: inflection point of concentration-dependent curve, in the presence of acetylcholine at EC20 concentration (final 0.8-1.0 nM), read-out: IP value
T1 construct: expressed in transfected cells
T1 sequence (P11229 1-460): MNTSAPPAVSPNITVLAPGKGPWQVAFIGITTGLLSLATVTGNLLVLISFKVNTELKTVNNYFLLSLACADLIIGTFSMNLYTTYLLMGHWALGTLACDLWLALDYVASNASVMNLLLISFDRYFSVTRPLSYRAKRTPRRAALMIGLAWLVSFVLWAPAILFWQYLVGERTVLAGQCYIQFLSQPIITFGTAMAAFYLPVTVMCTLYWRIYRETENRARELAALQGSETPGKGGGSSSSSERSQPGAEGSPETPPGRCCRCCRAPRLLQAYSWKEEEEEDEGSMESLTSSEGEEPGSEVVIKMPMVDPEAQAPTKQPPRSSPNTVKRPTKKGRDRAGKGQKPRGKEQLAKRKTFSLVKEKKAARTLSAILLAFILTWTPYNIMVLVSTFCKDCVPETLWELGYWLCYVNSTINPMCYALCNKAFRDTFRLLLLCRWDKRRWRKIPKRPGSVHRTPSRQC
Method: Measurement of M1 Receptor Positive Allosteric Modulator (M1PAM) Activity
The activity of a test compound in the presence of acetylcholine at EC20 concentration (final concentration 0.8-1.0 nM), which affords an action corresponding to about 20% of the maximum activity, was measured as PAM activity. The method is as follows. CHO-K1 cells stably expressing a human M1 receptor (hCHRM1) were plated on a 384-well black clear bottom plate (BD Falcon) at 5,000 cells/well, and cultured in an incubator at 37° C., 5% CO2 for 1 day. The medium in the cell plate was removed, and assay buffer A containing calcium indicator (Recording medium (DOJINDO LABORATORIES), 0.1% BSA (Wako Pure Chemical Industries, Ltd.), 2.5 μg/mL Fluo-4 AM (DOJINDO LABORATORIES), 0.08% Pluronic F127 (DOJINDO LABORATORIES), 1.25 mM probenecid (DOJINDO LABORATORIES)) was added at 30 μL/well. The cells were left standing in the incubator at 37° C., 5% CO2 for 30 min, and further left standing at room temperature for 30 min. A test compound prepared by diluting with assay buffer B (HBSS (Invitrogen), 20 mM HEPES (Invitrogen), 0.1% BSA) containing 3.2-4.0 nM acetylcholine was added at 10 μL/well, and the fluorescence was measured by FDSS/pCELL (Hamamatsu Photonics K.K.) for 1 min every for 1 second. With the definition that the amount of change in the fluorescence on addition of acetylcholine (final concentration 1 μM) is 100% and that on addition of DMSO instead of a test compound is 0%, the activity (%) of the test compound was calculated, and the inflection point in the concentration-dependent curve of the test compound was calculated as IP values.

MDR1 = target: T2, MDR1 (Homo sapiens, UniProt P08183); assay: MDR1 membrane permeability test; format: in vitro ADME; conditions: pH 7.4, efflux ratio (ER), Papp B to A / A to B, human MDR1-expressing LLC-PK1 cells, read-out: MDR1 substrate screening 1 μM (MDRSUB1)/Ratio (NUMBER)
T2 construct: expressed in transfected cells
How it was run: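 Human MDR1-expressing LLC-PK1 cells were grown for 3 days on 96-well polyethylene terephthalate Transwell supports (0.4 μm pores, 0.143 cm^2) seeded at 3.45×10^4 cells/well. After a 30 min preincubation in M199 medium with 10 mmol/L HEPES and 1% BSA (pH 7.4), drug was added apically or basolaterally. After 1 hr at 37° C, the opposite side was sampled and analyzed by LC-MS/MS. Efflux ratio was calculated from Papp B to A versus A to B.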

T2 sequence (P08183 whole entry): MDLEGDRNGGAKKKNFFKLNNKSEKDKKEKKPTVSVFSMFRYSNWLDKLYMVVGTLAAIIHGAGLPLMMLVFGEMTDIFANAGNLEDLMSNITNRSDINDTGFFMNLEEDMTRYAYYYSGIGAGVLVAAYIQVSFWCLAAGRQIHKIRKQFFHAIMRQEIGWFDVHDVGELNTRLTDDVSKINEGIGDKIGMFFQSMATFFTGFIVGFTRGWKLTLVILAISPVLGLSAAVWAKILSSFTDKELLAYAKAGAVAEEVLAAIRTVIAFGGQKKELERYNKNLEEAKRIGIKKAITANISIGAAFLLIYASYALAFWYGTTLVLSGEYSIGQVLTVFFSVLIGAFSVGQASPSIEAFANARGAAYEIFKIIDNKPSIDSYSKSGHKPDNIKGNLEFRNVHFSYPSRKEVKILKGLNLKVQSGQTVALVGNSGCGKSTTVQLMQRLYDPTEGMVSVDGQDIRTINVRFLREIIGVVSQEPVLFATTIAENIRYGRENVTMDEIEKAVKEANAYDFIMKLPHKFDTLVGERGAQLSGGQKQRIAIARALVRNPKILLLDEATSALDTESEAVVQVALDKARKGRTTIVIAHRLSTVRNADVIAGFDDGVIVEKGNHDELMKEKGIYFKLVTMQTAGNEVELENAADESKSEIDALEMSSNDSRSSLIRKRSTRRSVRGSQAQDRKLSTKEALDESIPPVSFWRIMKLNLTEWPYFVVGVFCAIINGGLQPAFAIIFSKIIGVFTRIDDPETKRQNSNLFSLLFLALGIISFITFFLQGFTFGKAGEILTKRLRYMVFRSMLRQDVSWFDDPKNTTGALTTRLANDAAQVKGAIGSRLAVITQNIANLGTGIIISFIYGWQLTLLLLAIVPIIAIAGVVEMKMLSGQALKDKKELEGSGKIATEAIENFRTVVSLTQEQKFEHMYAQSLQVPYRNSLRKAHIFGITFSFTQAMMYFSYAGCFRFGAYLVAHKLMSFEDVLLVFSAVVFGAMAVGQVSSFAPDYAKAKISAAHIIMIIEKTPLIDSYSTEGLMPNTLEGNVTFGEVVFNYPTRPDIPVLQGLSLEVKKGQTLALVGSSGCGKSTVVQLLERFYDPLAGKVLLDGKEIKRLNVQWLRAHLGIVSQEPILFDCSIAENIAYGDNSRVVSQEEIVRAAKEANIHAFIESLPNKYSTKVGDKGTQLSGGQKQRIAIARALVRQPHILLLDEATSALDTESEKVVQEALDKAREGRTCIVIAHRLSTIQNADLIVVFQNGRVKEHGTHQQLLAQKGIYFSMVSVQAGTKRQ

| activity (%) at 10 μM [1] [%] | EC50 [1] [nM] | efflux ratio at 1 hr, 1 μM (MDR1) | Compound |
| --- | --- | --- | --- |
| 107 | 2.5 | 8 | Cc1c(Cc2ccc(-c3cnn(CC4CC4)c3)nc2)cc2c(=O)n([C@H]3CCOC[C@@H]3O)cnc2c1C [Example 71, 1,5-anhydro-3-(6-((6-(1-(cyclopropylmethyl)-1H-pyrazol-4-yl)pyridin-3-yl)methyl)-7,8-dimethyl-4-oxoquinazolin-3(4H)-yl)-2,3-dideoxy-L-threo-pentitol] |
| 109 | 1.4 | 18 | COCCn1cc(-c2ccc(Cc3cc4c(=O)n([C@H]5CCOC[C@@H]5O)cnc4c(C)c3C)cn2)cn1 [Example 73, 1,5-anhydro-2,3-dideoxy-3-(6-((6-(1-(2-methoxyethyl)-1H-pyrazol-4-yl)pyridin-3-yl)methyl)-7,8-dimethyl-4-oxoquinazolin-3(4H)-yl)-L-threo-pentitol] |
| 108 | 3 | 13 | Cc1c(Cc2ccc(-c3cnn(C4CCOCC4)c3)nc2)cc2c(=O)n([C@H]3CCOC[C@@H]3O)cnc2c1C [Example 75, 1,5-anhydro-2,3-dideoxy-3-(7,8-dimethyl-4-oxo-6-((6-(1-(tetrahydro-2H-pyran-4-yl)-1H-pyrazol-4-yl)pyridin-3-yl)methyl)quinazolin-3(4H)-yl)-L-threo-pentitol] |
| 106 | 1.9 | 15 | Cc1c(Cc2ccc(C(=O)NCC3(O)CC3)c(F)c2)cc2c(=O)n([C@H]3CCOC[C@@H]3O)cnc2c1C [Example 76, 1,5-anhydro-2,3-dideoxy-3-(6-(3-fluoro-4-(((1-hydroxycyclopropyl)methyl)-carbamoyl)benzyl)-7,8-dimethyl-4-oxoquinazolin-3 (4H)-yl)-L-threo-pentitol] |
| 107 | 2 | 32 | Cc1c(Cc2ccc(C(=O)NCCN3CCCC3=O)c(F)c2)cc2c(=O)n([C@H]3CCOC[C@@H]3O)cnc2c1C [Example 77, 1,5-anhydro-2,3-dideoxy-3-(6-(3-fluoro-4-((2-(2-oxopyrrolidin-1-yl)ethyl)carbamoyl)benzyl)-7,8-dimethyl-4-oxoquinazolin-3 (4H)-yl)-L-threo-pentitol] |
| 108 | 1.5 | 26 | Cc1c(Cc2ccc(C(=O)NCC3COC3)c(F)c2)cc2c(=O)n([C@H]3CCOC[C@@H]3O)cnc2c1C [Example 79, 1,5-anhydro-2,3-dideoxy-3-(6-(3-fluoro-4-((oxetan-3-ylmethyl)carbamoyl)benzyl)-7,8-dimethyl-4-oxoquinazolin-3 (4H)-yl)-L-threo-pentitol] |
| 107 | 1.9 | 9.5 | Cc1c(Cc2ccc(C(=O)NC[C@@H]3CCCO3)c(F)c2)cc2c(=O)n([C@H]3CCOC[C@@H]3O)cnc2c1C [Example 80, 1,5-anhydro-2,3-dideoxy-3-(6-(3-fluoro-4-(((2S)-tetrahydrofuran-2-ylmethyl)carbamoyl)benzyl)-7,8-dimethyl-4-oxoquinazolin-3 (4H)-yl)-L-threo-pentitol] |
| 109 | 1.5 | 19 | Cc1c(Cc2ccc(C(=O)NC3CS(=O)(=O)C3)c(F)c2)cc2c(=O)n([C@H]3CCOC[C@@H]3O)cnc2c1C [Example 83, 1,5-anhydro-2,3-dideoxy-3-(6-(4-((1,1-dioxidethietan-3-yl)carbamoyl)-3-fluorobenzyl)-7,8-dimethyl-4-oxoquinazolin-3 (4H)-yl)-L-threo-pentitol] |
| 106 | 1.9 | 11 | Cc1c(Cc2ccc(C(=O)NCCS(C)(=O)=O)c(F)c2)cc2c(=O)n([C@H]3CCOC[C@@H]3O)cnc2c1C [Example 84, 1,5-anhydro-2,3-dideoxy-3-(6-(3-fluoro-4-((2-(methylsulfonyl)ethyl)-carbamoyl)benzyl)-7,8-dimethyl-4-oxoquinazolin-3 (4H)-yl)-L-threo-pentitol] |
